From patent publication US4324786A, “Pyrido[2,3-e]-as-triazine derivatives and pharmaceutical compositions” (Egyt Gyogyszervegyeszeti Gyar, priority 1979, dated 1982)

Key:
[1] = test system: mice; test: analgesic effect on mice, method of Newbould; assay type: in vivo; details: oral; for ED50: Mus musculus
Procedure: The analgesic effects of the new compounds were tested on mice after oral administration, as described by Newbould [Brit.

[2] = test system: mice; test: narcosis potentiating effect on mice, method of Kaergaard; details: for ED50: Mus musculus, po; for Therapeutical index: narcosis potentiating effect, mice, oral
Procedure: The narcosis potentiating effects was tested on mice according to the method of Kaergaard [Arch. […] The compounds under examination were administered orally to the animals.

[3] = test system: mice; test: animal or person; assay type: in vivo; details: potentiation of the toxicity of yohimbine, oral; for ED50: Mus musculus
Procedure: The ability of the compounds in potentiating the toxicity of yohimbine was tested on mice by the method of Quinton [Brit. J. Pharmacol. 21, 51 (1963)]. The compounds were administered orally to the animals.

[4] = in vivo; details: mouse, mice, oral
Procedure: The toxicity was determined on mice after oral adminstration.

[5] = test system: rats; test: antiphlogistic effect on rats, method of Winter; assay type: in vivo; details: oral; for ED50: Rattus norvegicus
Procedure: The antiphlogistic effects of the new compounds were determined on rats by the method of Winter [Proc. Soc. Exp. Biol. Med. 111, 544 (1962)]. The compounds were administered orally to the animals.

[6] = test system: mice; test: tetrabenazine antagonizing effect (inhibition of ptosis provoked by tetrabenazine) on mice, method of Brodie; assay type: in vivo; details: oral
[7] = test system: mice; test: motility inhibiting effect on mice, method of Borsy et al.; assay type: in vivo; details: for ED50: Mus musculus
Procedure: The motility inhibiting effects of the new compounds were tested on mice by the method of Borsy et al. [Int. Pharmacodyn. […] The compounds to be tested were administered orally to the animals.

[8] = motility inhibiting effect, mice, oral

SMILES: CC(=O)Nc1ccc(O)cc1 [Paracetamol, reference compound]
- ED50 [1]: 180 mg/kg

SMILES: CCC(=O)N1C(N2CCOCC2)=Nc2ncccc2N1C(=O)CC [Example 1, 3-morpholino-1,2-dipropionyl-1,2-dihydro-pyrido[2,3-e]-as-triazine]
- ED50 [2]: 54 mg/kg
- Therapeutical index [2]: 29.6
- ED50 [3]: 320 mg/kg
- Therapeutical index [3]: 5
- LD50 [4]: 1600 mg/kg
- ED50 [5]: 300 mg/kg
- Therapeutical index [5]: 5.3
- Therapeutical index [6]: 5
- Therapeutical index [7, 8]: 5
- ED50 [1]: 300 mg/kg
- Therapeutical index [1]: 5.3

SMILES: CCC(=O)N1NC(N(C(C)C)C(C)C)=Nc2ncccc21 [Example 2, 3-diisopropylamino-1-propionyl-1,2-dihydro-pyrido[2,3-e]-as-triazine]
- ED50 [2]: 40 mg/kg
- Therapeutical index [2]: 50
- ED50 [3]: 140 mg/kg
- Therapeutical index [3]: 14.3
- LD50 [4]: 2000 mg/kg
- ED50 [5]: 450 mg/kg
- Therapeutical index [5]: 4.4
- ED50 ([6]; Mus musculus): 150 mg/kg
- Therapeutical index [6]: 13.3
- ED50 ([7]; motility inhibiting effect, mice, oral, read-out: ED50): 250 mg/kg
- Therapeutical index [7, 8]: 8
- ED50 [1]: 350 mg/kg
- Therapeutical index [1]: 5.7

SMILES: CCCC(C)(COC(N)=O)COC(N)=O [Meprobamate, reference compound]
- ED50 [2]: 250 mg/kg
- Therapeutical index [2]: 4.2
- ED50 ([7]; po): 270 mg/kg
- Therapeutical index [7, 8]: 4.1
